Reference: the NIST ThermoML archive (doi:10.1016/j.tca.2005.10.007)
± gives the expanded uncertainty stated by the source.

Details: 101.33 kPa, Liquid, Vibrating tube method

CC(O)CN (configuration not stated) [1-amino-2-propanol]
Details	mass density [kg/m3]
278.16 K	972.17 ± 0.49
278.65 K	971.79 ± 0.49
279.14 K	971.4 ± 0.49
279.65 K	971.01 ± 0.49
280.15 K	970.62 ± 0.49
280.65 K	970.23 ± 0.49
281.15 K	969.84 ± 0.49
281.65 K	969.45 ± 0.49
282.15 K	969.05 ± 0.49
282.65 K	968.66 ± 0.49
283.15 K	968.27 ± 0.49
283.65 K	967.88 ± 0.49
284.15 K	967.49 ± 0.49
284.65 K	967.1 ± 0.49
285.15 K	966.7 ± 0.49
285.65 K	966.31 ± 0.49
286.15 K	965.92 ± 0.49
286.64 K	965.52 ± 0.49
287.15 K	965.13 ± 0.49
287.65 K	964.73 ± 0.49
288.15 K	964.34 ± 0.49
288.65 K	963.95 ± 0.49
289.15 K	963.55 ± 0.49
289.65 K	963.15 ± 0.49
290.15 K	962.76 ± 0.49
290.65 K	962.36 ± 0.49
291.15 K	961.97 ± 0.49
291.64 K	961.57 ± 0.49
292.15 K	961.18 ± 0.49
292.65 K	960.78 ± 0.49
293.15 K	960.38 ± 0.49
293.64 K	959.99 ± 0.49
294.14 K	959.59 ± 0.49
294.64 K	959.19 ± 0.49
295.15 K	958.79 ± 0.49
295.65 K	958.39 ± 0.49
296.15 K	957.99 ± 0.49
296.65 K	957.6 ± 0.49
297.15 K	957.2 ± 0.49
297.64 K	956.8 ± 0.49
298.15 K	956.4 ± 0.49
298.65 K	956 ± 0.49
299.15 K	955.6 ± 0.49
299.64 K	955.2 ± 0.49
300.14 K	954.8 ± 0.49
300.64 K	954.4 ± 0.49
301.15 K	954 ± 0.49
301.65 K	953.59 ± 0.49
302.14 K	953.2 ± 0.5
302.65 K	952.79 ± 0.49
303.15 K	952.39 ± 0.49
303.64 K	951.99 ± 0.49
304.15 K	951.59 ± 0.49
304.65 K	951.18 ± 0.49
305.15 K	950.78 ± 0.48
305.64 K	950.38 ± 0.48
306.15 K	949.98 ± 0.48
306.65 K	949.57 ± 0.48
307.15 K	949.17 ± 0.48
307.64 K	948.77 ± 0.48
308.15 K	948.36 ± 0.48
308.65 K	947.95 ± 0.48
309.15 K	947.55 ± 0.48
309.65 K	947.14 ± 0.48
310.15 K	946.74 ± 0.48
310.65 K	946.33 ± 0.48
311.15 K	945.92 ± 0.48
311.64 K	945.52 ± 0.48
312.15 K	945.11 ± 0.48
312.64 K	944.7 ± 0.5
313.15 K	944.3 ± 0.48
313.65 K	943.89 ± 0.48
314.15 K	943.48 ± 0.48
314.65 K	943.07 ± 0.48
315.15 K	942.66 ± 0.48
315.65 K	942.25 ± 0.48
316.15 K	941.84 ± 0.48
316.65 K	941.43 ± 0.48
317.15 K	941.03 ± 0.48
317.65 K	940.61 ± 0.48
318.15 K	940.2 ± 0.48
318.65 K	939.79 ± 0.48
319.14 K	939.38 ± 0.48
319.65 K	938.96 ± 0.48
320.15 K	938.55 ± 0.48
320.64 K	938.14 ± 0.48
321.15 K	937.72 ± 0.48
321.65 K	937.31 ± 0.48
322.15 K	936.9 ± 0.48
322.65 K	936.49 ± 0.48
323.15 K	936.08 ± 0.48
323.65 K	935.66 ± 0.48
324.15 K	935.25 ± 0.48
324.65 K	934.83 ± 0.48
325.15 K	934.42 ± 0.48
325.65 K	934.01 ± 0.48
326.15 K	933.59 ± 0.48
326.65 K	933.18 ± 0.48
327.15 K	932.76 ± 0.48
327.65 K	932.35 ± 0.48
328.15 K	931.93 ± 0.48
328.66 K	931.51 ± 0.48
329.15 K	931.09 ± 0.48
329.66 K	930.68 ± 0.48
330.16 K	930.26 ± 0.48
330.66 K	929.84 ± 0.48
331.15 K	929.42 ± 0.48
331.66 K	929 ± 0.48
332.16 K	928.58 ± 0.48
332.66 K	928.16 ± 0.48
333.16 K	927.74 ± 0.48
333.66 K	927.31 ± 0.48
334.16 K	926.89 ± 0.47
334.66 K	926.47 ± 0.47
335.16 K	926.05 ± 0.47
335.66 K	925.63 ± 0.47
336.16 K	925.2 ± 0.47
336.66 K	924.78 ± 0.47
337.16 K	924.36 ± 0.47
337.66 K	923.93 ± 0.47
338.16 K	923.5 ± 0.47
338.66 K	923.08 ± 0.47
339.16 K	922.65 ± 0.47
339.66 K	922.23 ± 0.47
340.16 K	921.8 ± 0.47
340.66 K	921.38 ± 0.47
341.16 K	920.95 ± 0.47
341.66 K	920.52 ± 0.47
342.16 K	920.09 ± 0.47
342.66 K	919.66 ± 0.47
343.16 K	919.23 ± 0.47
343.66 K	918.8 ± 0.5
344.16 K	918.37 ± 0.47
344.66 K	917.94 ± 0.47
345.16 K	917.51 ± 0.47
345.66 K	917.08 ± 0.47
346.16 K	916.65 ± 0.47
346.66 K	916.21 ± 0.47
347.16 K	915.78 ± 0.47
347.66 K	915.35 ± 0.47
348.16 K	914.92 ± 0.47
348.66 K	914.48 ± 0.47
349.16 K	914.05 ± 0.47
349.66 K	913.61 ± 0.47
350.16 K	913.18 ± 0.47
350.66 K	912.74 ± 0.47
351.16 K	912.3 ± 0.5
351.66 K	911.87 ± 0.47
352.16 K	911.43 ± 0.47
352.66 K	910.99 ± 0.47
353.16 K	910.55 ± 0.47
353.66 K	910.12 ± 0.47
354.16 K	909.68 ± 0.47
354.66 K	909.23 ± 0.47
355.16 K	908.8 ± 0.5
355.66 K	908.35 ± 0.47
356.16 K	907.91 ± 0.47
356.66 K	907.47 ± 0.47
357.16 K	907.03 ± 0.47
357.66 K	906.59 ± 0.47
358.16 K	906.14 ± 0.47
358.66 K	905.7 ± 0.5
359.16 K	905.26 ± 0.47
359.66 K	904.81 ± 0.47
360.16 K	904.36 ± 0.47
360.65 K	903.92 ± 0.47
361.16 K	903.47 ± 0.47
361.66 K	903.03 ± 0.47
362.16 K	902.58 ± 0.47
362.66 K	902.13 ± 0.47
363.15 K	901.68 ± 0.46
363.16 K	901.69 ± 0.46
